Data reported in ChEMBL document CHEMBL1148729, “Specific plant terpenoids and lignoids possess potent antiviral activities against severe acute respiratory syndrome coronavirus” (J Med Chem, 2007).

Key:
SARS-CoV [1] = assay: Inhibition of SARS coronavirus-induced cytopathogenicity in Vero E6 cells at 20 uM; assay type: functional; conditions: Severe acute respiratory syndrome-related coronavirus
SARS-CoV [2] = assay: Inhibition of SARS coronavirus-induced cytopathogenicity in Vero E6 cells at 10 uM; assay type: functional; conditions: Severe acute respiratory syndrome-related coronavirus
SARS-CoV [3] = assay: Antiviral activity against SARS coronavirus in Vero E6 cells assessed as inhibition of viral replication by ELISA; assay type: functional, organism-based; conditions: Severe acute respiratory syndrome-related coronavirus
[4] = Selectivity index, Ratio of CC50 for Vero E6 cells to EC50 for SARS coronavirus; assay type: functional
SARS-CoV [5] = assay: Inhibition of SARS virus-induced cytopathogenicity in Vero E6 cells at 3.3 uM; assay type: functional; conditions: Severe acute respiratory syndrome-related coronavirus
[6] = Cytotoxicity against Vero E6 cells by MTT assay; assay type: cell-based; conditions: chlorocebus sabaeus
SARS-CoV [7] = assay: Inhibition of SARS virus-induced cytopathogenicity in Vero E6 cells at 1 uM; assay type: functional; conditions: Severe acute respiratory syndrome-related coronavirus
Replicase polyprotein 1a = Replicase polyprotein 1a (Severe acute respiratory syndrome-related coronavirus, UniProt P0C6U8); assay: Inhibition of SARS coronavirus 3CL protease

Row | SMILES | inhibition at 20 µM (SARS-CoV [1]) [%] | inhibition at 10 µM (SARS-CoV [2]) [%] | EC50 (SARS-CoV [3]) [µM] | Ratio CC50/EC50 [4] | inhibition at 3.3 µM (SARS-CoV [5]) [%] | CC50 [6] [µM] | inhibition at 1 µM (SARS-CoV [7]) [%] | IC50 (Replicase polyprotein 1a) [µM] | Ki (Replicase polyprotein 1a) [µM]
1 | C=C[C@@]1(C)CC(=O)[C@]2(O)[C@@]3(C)[C@@H](O)CCC(C)(C)[C@@H]3[C@H](O)[C@H](OC(C)=O)[C@@]2(C)O1 [COLFORSIN] | < 25 | 25 | 7.5 | 89.8 | 50 | 674 |  |  | 
2 | C=C1CC[C@@H]2[C@](C)(CCC[C@]2(C)C(=O)O)[C@H]1CCC1=CCOC1=O [PINUSOLIDIC ACID] | < 25 | < 25 | 4.71 | >159 |  | > 750 |  |  | 
3 | CC1=C[C@@H]2[C@@H](CC1)[C@](C)(O)CC[C@H]2C(C)C | < 25 | 25 | 4.44 | 17.3 | 25 | 76.8 | 50 |  | 
4 | O=C1OC[C@H](Cc2ccc3c(c2)OCO3)[C@H]1Cc1ccc2c(c1)OCO2 [HINOKININ] | < 25 | 25 | > 10 |  | 25 | > 750 | 50 | > 100 | 
5 | C[C@@H]1CC[C@H]2[C@@](C)(CO)[C@H]3C[C@@]12CC[C@@]3(C)O | < 25 | 25 | > 10 |  | 50 | > 750 |  |  | 
6 | CC(C)c1cc2c(cc1O)[C@@]1(C)CCCC(C)(C)[C@@H]1CC2=O [SUGIOL] | < 25 | < 25 |  |  |  |  |  |  | 
7 | CC(=O)Oc1cc2c(cc1C(C)C)C=C[C@H]1C(C)(C)[C@@H](OC(C)=O)CC[C@]21C | < 25 | 25 | 1.57 | 193 | 25 | 303 |  |  | 
8 | CC(C)C1=C(O)C(=O)C2=C(C=C[C@H]3C(C)(C)CCC[C@]23C)C1=O | < 25 | 25 | 5.55 | 16.2 |  | 89.7 |  |  | 
9 | C=CCc1ccc(O)c(-c2ccc(O)c(CC=C)c2)c1 [HONOKIOL] | < 25 | < 25 | 6.5 | 13.7 | 25 | 88.9 |  |  | 
10 | COc1cc(/C=C/C(=O)CC(=O)/C=C/c2ccc(O)c(OC)c2)ccc1O [CURCUMIN] | 25 | 50 | > 10 |  |  | > 250 |  | 40 | 
11 | CC(C)c1ccc2c(c1)C(=O)C[C@H]1C(C)(C)CCC[C@]21C | < 25 | < 25 | 4 | 76.3 |  | 305 |  |  | 
12 | COc1c(C(C)C)cc2c(c1O)[C@@]1(C)CCCC(C)(C)[C@@H]1C[C@@H]2O | < 25 | < 25 | 1.15 | 111 |  | 127 |  |  | 
13 | COc1cc(C2c3cc(OC(=O)c4ccccc4)c(OC)cc3C[C@@H](CO)[C@@H]2CO)ccc1OC(=O)c1ccccc1 (stereo not given in full) | < 25 | < 25 |  |  |  |  |  |  | 
14 | C=C(C)[C@@H]1CC[C@]2(C(=O)O)CC[C@]3(C)[C@H](CC[C@@H]4[C@@]5(C)CCC(=O)C(C)(C)[C@@H]5CC[C@]43C)[C@@H]12 [BETUNOLIC ACID] | < 25 | < 25 | 0.63 | 180 |  | 112 |  | > 100 | 
15 | C=CCc1ccc(O)c(-c2cc(CC=C)ccc2O)c1 [MAGNOLOL] | < 25 | < 25 | 3.8 | 18 | 50 | 68.3 |  |  | 
16 | O=C1OC[C@H](Cc2ccc3c(c2)OCO3)/C1=C\c1ccc2c(c1)OCO2 [SAVININ] | < 25 | < 25 | 1.13 | >667 |  | > 750 |  | 25 | 9.1
17 | O=C(Nc1ccc([N+](=O)[O-])cc1Cl)c1cc(Cl)ccc1O [NICLOSAMIDE] | < 25 | 25 | < 0.1 | >221 | 25 | 22.1 | 50 | 40 | 
18 | C=C(C)[C@@H]1CC[C@]2(C(=O)O)CC[C@]3(C)[C@H](CC[C@@H]4[C@@]5(C)CC[C@H](O)C(C)(C)[C@@H]5CC[C@]43C)[C@@H]12 [BETULINIC ACID] | < 25 | 25 | > 10 | <15 | 50 | 150 |  | 10 | 8.2
19 | COc1c(C(C)C)cc2c(c1O)[C@@]1(C)CCCC(C)(C)[C@@H]1CC2=O [CRYPTOJAPONOL] | < 25 | < 25 | > 10 | <7.9 |  | 78.5 |  |  | 
20 | CC(C)[C@@H]1NC(=O)[C@H](C)OC(=O)[C@@H](C(C)C)NC(=O)[C@@H](C(C)C)OC(=O)[C@H](C(C)C)NC(=O)[C@H](C)OC(=O)[C@@H](C(C)C)NC(=O)[C@@H](C(C)C)OC(=O)[C@H](C(C)C)NC(=O)[C@H](C)OC(=O)[C@@H](C(C)C)NC(=O)[C@@H](C(C)C)OC1=O [VALINOMYCIN] | < 25 | 25 | 1.63 | 41.4 | 25 | 67.5 | 50 |  | 
21 | CC(C)c1cc2c(cc1O)[C@@]1(C)CCCC(C)(C)[C@@H]1CC2 [FERRUGINOL] | < 25 | < 25 | 1.39 | 58 | 25 | 80.4 |  |  | 
22 | CC(C)C1=C[C@]2(O)CC[C@H]3C(C)(C)CCC[C@]3(C)C2=CC1=O | < 25 | < 25 | 1.47 | >510 | 50 | > 750 |  |  | 
